Molecular target: T1, Adenosine receptor A1 (Homo sapiens, UniProt P30542)
T1 sequence (P30542 whole entry): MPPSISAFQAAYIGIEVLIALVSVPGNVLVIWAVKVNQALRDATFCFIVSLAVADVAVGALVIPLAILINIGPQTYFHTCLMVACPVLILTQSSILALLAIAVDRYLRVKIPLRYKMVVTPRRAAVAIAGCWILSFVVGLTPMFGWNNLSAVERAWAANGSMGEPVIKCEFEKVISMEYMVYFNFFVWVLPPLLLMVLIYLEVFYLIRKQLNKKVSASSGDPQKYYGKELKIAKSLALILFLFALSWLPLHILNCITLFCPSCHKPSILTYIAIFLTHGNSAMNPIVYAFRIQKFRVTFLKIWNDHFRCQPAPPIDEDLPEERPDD
Experiment: Inhibition of recombinant human adenosine receptor A1 expressed in CHO cells
Type: cell-based
Settings: not given

| Structure (SMILES) | IC50 |
| --- | --- |
| CC(C)CN1[C@H](c2ccc(/C=C/C(=O)O)cc2)c2ccc(O)cc2C[C@H]1C | 29 µM |

Molecular target: T2, B2 bradykinin receptor (Homo sapiens, UniProt P30411)
T2 sequence (P30411 whole entry): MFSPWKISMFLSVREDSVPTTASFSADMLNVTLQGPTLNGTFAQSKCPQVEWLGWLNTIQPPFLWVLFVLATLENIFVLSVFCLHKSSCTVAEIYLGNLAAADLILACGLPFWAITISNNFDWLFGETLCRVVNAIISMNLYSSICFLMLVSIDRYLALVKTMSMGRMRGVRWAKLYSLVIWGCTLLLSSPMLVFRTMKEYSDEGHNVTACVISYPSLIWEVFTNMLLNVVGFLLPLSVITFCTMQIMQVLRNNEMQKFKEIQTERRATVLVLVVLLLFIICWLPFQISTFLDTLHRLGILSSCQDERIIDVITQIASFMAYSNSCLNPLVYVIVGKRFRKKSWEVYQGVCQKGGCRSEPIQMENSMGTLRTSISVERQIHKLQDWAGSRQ
Experiment: Inhibition of recombinant human bradykinin receptor 2 expressed in CHO cells
Type: cell-based
Settings: not given

| Structure (SMILES) | IC50 |
| --- | --- |
| CC(C)CN1[C@H](c2ccc(/C=C/C(=O)O)cc2)c2ccc(O)cc2C[C@H]1C | 20 µM |

Molecular target: Mu-type opioid receptor (Homo sapiens, UniProt P35372)
Experiment: Inhibition of human recombinant mu1 opioid receptor expressed in HEK293 cells
Type: cell-based
Settings: not given

Sequence of Mu-type opioid receptor (P35372 whole entry): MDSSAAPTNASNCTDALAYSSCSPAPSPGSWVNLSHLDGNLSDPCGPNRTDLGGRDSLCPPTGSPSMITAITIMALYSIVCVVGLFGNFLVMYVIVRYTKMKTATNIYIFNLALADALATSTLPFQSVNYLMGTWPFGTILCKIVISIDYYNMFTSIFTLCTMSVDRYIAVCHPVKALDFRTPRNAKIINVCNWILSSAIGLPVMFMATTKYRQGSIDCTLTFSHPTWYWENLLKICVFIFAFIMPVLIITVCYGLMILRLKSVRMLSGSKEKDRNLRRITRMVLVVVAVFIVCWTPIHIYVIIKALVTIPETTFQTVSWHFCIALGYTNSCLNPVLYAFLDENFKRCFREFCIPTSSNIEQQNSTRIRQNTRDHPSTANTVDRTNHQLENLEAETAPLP

| Structure (SMILES) | IC50 |
| --- | --- |
| CC(C)CN1[C@H](c2ccc(/C=C/C(=O)O)cc2)c2ccc(O)cc2C[C@H]1C | 12 µM |

Tested on: not listed separately
Experiment: Solubility of compound in aqueous phosphate buffer at pH 7.4 after 24 hrs
Type: physicochemical
Settings: not given

| Structure (SMILES) | solubility at 24 h |
| --- | --- |
| CC(C)CN1[C@H](c2ccc(/C=C/C(=O)O)cc2)c2ccc(O)cc2C[C@H]1C | > 1500 µM |

Tested on: not listed separately
Experiment: Inhibition of cytochrome P450 (unknown origin)
Type: ADME, Homo sapiens
Settings: not given

| Structure (SMILES) | IC50 |
| --- | --- |
| CC(C)CN1[C@H](c2ccc(/C=C/C(=O)O)cc2)c2ccc(O)cc2C[C@H]1C | > 30 µM |

Tested on: not listed separately
Experiment: Percentage unbound in Han Wistar rat plasma by equilibrium dialysis method
Type: ADME, cell-free
Settings: not given

| Structure (SMILES) | fraction unbound |
| --- | --- |
| Cc1cc2c(cc1O)CCN(CC(C)C)[C@@H]2c1ccc(/C=C/C(=O)O)cc1 | 0.088 |
| COC[C@H](C)CN1[C@H](c2c(F)cc(/C=C/C(=O)O)cc2F)c2ccc(O)cc2C[C@H]1C | 0.053 |
| CC(C)CN1CCc2cc(O)ccc2[C@@]1(C)c1ccc(/C=C/C(=O)O)cc1 | 0.019 |
| C[C@H](CF)CN1[C@H](c2ccc(/C=C/C(=O)O)cc2)c2ccc(O)cc2CC1(C)C | 0.028 |

The remaining lines, values ahead:

| fraction unbound | Structure (SMILES) |
| --- | --- |
| 0.0006 | O=C(O)/C=C/c1ccc(C2c3ccc(O)cc3CCN2c2ccc(OC(F)(F)F)cc2)cc1 (configuration not stated) |
| 0.075 | CC(C)CN1[C@H](c2ccc(/C=C/C(=O)O)cc2)c2ccc(O)cc2C[C@H]1C |

Tested on: not listed separately
Experiment: Percentage unbound in human plasma by equilibrium dialysis method
Type: ADME, cell-free
Settings: not given

| Structure (SMILES) | fraction unbound |
| --- | --- |
| Cc1cc2c(cc1O)CCN(CC(C)C)[C@@H]2c1ccc(/C=C/C(=O)O)cc1 | 0.091 |
| COC[C@H](C)CN1[C@H](c2c(F)cc(/C=C/C(=O)O)cc2F)c2ccc(O)cc2C[C@H]1C | 0.038 |
| CC(C)CN1CCc2cc(O)ccc2[C@@]1(C)c1ccc(/C=C/C(=O)O)cc1 | 0.009 |
| C[C@H](CF)CN1[C@H](c2ccc(/C=C/C(=O)O)cc2)c2ccc(O)cc2CC1(C)C | 0.01 |

Now from value to molecule:

| fraction unbound | Structure (SMILES) |
| --- | --- |
| 0.0006 | O=C(O)/C=C/c1ccc(C2c3ccc(O)cc3CCN2c2ccc(OC(F)(F)F)cc2)cc1 (configuration not stated) |
| 0.07 | CC(C)CN1[C@H](c2ccc(/C=C/C(=O)O)cc2)c2ccc(O)cc2C[C@H]1C |

Tested on: not listed separately
Experiment: Intrinsic clearance in Han Wistar rat hepatocytes assessed per 10^6 cells
Type: ADME, cell-based, Hepatocyte
Settings: read-out: CLH

| Structure (SMILES) | hepatocyte CLint |
| --- | --- |
| Cc1cc2c(cc1O)CCN(CC(C)C)[C@@H]2c1ccc(/C=C/C(=O)O)cc1 | 17 µL/min/1e6 cells |
| COC[C@H](C)CN1[C@H](c2c(F)cc(/C=C/C(=O)O)cc2F)c2ccc(O)cc2C[C@H]1C | 110 µL/min/1e6 cells |
| CC(C)CN1CCc2cc(O)ccc2[C@@]1(C)c1ccc(/C=C/C(=O)O)cc1 | 33 µL/min/1e6 cells |
| C[C@H](CF)CN1[C@H](c2ccc(/C=C/C(=O)O)cc2)c2ccc(O)cc2CC1(C)C | 24 µL/min/1e6 cells |

Further lines, results first:

| hepatocyte CLint | Structure (SMILES) |
| --- | --- |
| 20 µL/min/1e6 cells | O=C(O)/C=C/c1ccc(C2c3ccc(O)cc3CCN2c2ccc(OC(F)(F)F)cc2)cc1 (configuration not stated) |
| 22 µL/min/1e6 cells | CC(C)CN1[C@H](c2ccc(/C=C/C(=O)O)cc2)c2ccc(O)cc2C[C@H]1C |

Tested on: not listed separately
Experiment: Intrinsic clearance in human hepatocytes assessed per 10^6 cells
Type: ADME, cell-based, Hepatocyte
Settings: read-out: CLH

| Structure (SMILES) | hepatocyte CLint |
| --- | --- |
| Cc1cc2c(cc1O)CCN(CC(C)C)[C@@H]2c1ccc(/C=C/C(=O)O)cc1 | 17 µL/min/1e6 cells |
| COC[C@H](C)CN1[C@H](c2c(F)cc(/C=C/C(=O)O)cc2F)c2ccc(O)cc2C[C@H]1C | 45 µL/min/1e6 cells |
| CC(C)CN1CCc2cc(O)ccc2[C@@]1(C)c1ccc(/C=C/C(=O)O)cc1 | 40 µL/min/1e6 cells |
| C[C@H](CF)CN1[C@H](c2ccc(/C=C/C(=O)O)cc2)c2ccc(O)cc2CC1(C)C | 14 µL/min/1e6 cells |

Second part, the molecule after the results:

| hepatocyte CLint | Structure (SMILES) |
| --- | --- |
| 11 µL/min/1e6 cells | O=C(O)/C=C/c1ccc(C2c3ccc(O)cc3CCN2c2ccc(OC(F)(F)F)cc2)cc1 (configuration not stated) |
| 33 µL/min/1e6 cells | CC(C)CN1[C@H](c2ccc(/C=C/C(=O)O)cc2)c2ccc(O)cc2C[C@H]1C |

Tested on: not listed separately
Experiment: Clearance in rat at 0.5 mg/kg, iv or 1 mg/kg, po
Type: ADME, organism-based
Settings: in vivo

| Structure (SMILES) | clearance |
| --- | --- |
| CC(C)CN1[C@H](c2ccc(/C=C/C(=O)O)cc2)c2ccc(O)cc2C[C@H]1C | 49 mL/min/kg |

Tested on: not listed separately
Experiment: Volume of distribution at steady state in rat at 0.5 mg/kg, iv or 1 mg/kg, po
Type: ADME, organism-based
Settings: in vivo, read-out: Vdss

| Structure (SMILES) | Vd |
| --- | --- |
| CC(C)CN1[C@H](c2ccc(/C=C/C(=O)O)cc2)c2ccc(O)cc2C[C@H]1C | 0.6 L/kg |

Tested on: not listed separately
Experiment: Half life in rat at 1 mg/kg, po
Type: ADME, organism-based
Settings: in vivo

| Structure (SMILES) | half-life |
| --- | --- |
| CC(C)CN1[C@H](c2ccc(/C=C/C(=O)O)cc2)c2ccc(O)cc2C[C@H]1C | 3.9 h |

Tested on: not listed separately
Experiment: Half life in rat at 0.5 mg/kg, iv
Type: ADME, organism-based
Settings: in vivo

| Structure (SMILES) | half-life |
| --- | --- |
| CC(C)CN1[C@H](c2ccc(/C=C/C(=O)O)cc2)c2ccc(O)cc2C[C@H]1C | 0.2 h |

Molecular target: Voltage-gated inwardly rectifying potassium channel KCNH2 (Homo sapiens, UniProt Q12809)
Experiment: Inhibition of human ERG tail current by plate-based planar patch clamp system
Settings: not given

Sequence of Voltage-gated inwardly rectifying potassium channel KCNH2 (Q12809 whole entry): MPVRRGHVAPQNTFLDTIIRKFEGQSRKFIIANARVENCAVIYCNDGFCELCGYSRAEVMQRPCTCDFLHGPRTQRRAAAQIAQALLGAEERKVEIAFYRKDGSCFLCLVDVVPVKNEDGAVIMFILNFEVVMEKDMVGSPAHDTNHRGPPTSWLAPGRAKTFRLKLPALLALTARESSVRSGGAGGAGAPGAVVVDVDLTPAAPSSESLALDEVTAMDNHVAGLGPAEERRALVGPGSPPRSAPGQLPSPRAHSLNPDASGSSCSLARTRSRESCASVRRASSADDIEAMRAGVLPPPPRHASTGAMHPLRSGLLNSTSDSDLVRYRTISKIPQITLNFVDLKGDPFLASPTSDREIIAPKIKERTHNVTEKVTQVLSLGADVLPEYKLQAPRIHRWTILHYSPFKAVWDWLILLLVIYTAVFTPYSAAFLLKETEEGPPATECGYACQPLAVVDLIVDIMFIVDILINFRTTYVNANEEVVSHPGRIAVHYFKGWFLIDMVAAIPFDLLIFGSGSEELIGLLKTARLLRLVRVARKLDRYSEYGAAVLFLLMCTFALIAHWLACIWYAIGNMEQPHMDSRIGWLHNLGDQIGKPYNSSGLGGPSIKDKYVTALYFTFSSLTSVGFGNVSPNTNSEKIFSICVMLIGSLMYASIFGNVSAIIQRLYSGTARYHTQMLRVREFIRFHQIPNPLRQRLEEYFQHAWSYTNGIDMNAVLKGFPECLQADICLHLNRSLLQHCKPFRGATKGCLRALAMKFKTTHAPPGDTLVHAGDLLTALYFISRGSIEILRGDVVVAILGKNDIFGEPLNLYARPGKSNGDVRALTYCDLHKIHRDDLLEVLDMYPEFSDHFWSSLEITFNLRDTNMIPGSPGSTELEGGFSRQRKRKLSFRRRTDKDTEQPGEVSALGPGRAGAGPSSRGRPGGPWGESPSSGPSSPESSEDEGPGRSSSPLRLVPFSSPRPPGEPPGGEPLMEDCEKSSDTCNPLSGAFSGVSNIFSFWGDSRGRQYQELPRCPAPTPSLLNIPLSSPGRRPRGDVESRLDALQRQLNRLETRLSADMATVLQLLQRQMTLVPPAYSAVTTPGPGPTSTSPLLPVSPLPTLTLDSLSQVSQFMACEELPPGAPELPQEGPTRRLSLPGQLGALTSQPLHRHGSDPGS

| Structure (SMILES) | IC50 |
| --- | --- |
| CC(C)CN1[C@H](c2ccc(/C=C/C(=O)O)cc2)c2ccc(O)cc2C[C@H]1C | > 30 µM |

Tested on: not listed separately
Experiment: in vivo
Settings: rat, po, 1 mg/kg

| Structure (SMILES) | bioavailability |
| --- | --- |
| C[C@H](CF)CN1[C@H](c2ccc(/C=C/C(=O)O)cc2)c2ccc(O)cc2CC1(C)C | > 70% |
| CC(C)CN1[C@H](c2ccc(/C=C/C(=O)O)cc2)c2ccc(O)cc2C[C@H]1C | 86% |

Tested on: not listed separately
Experiment: physchem
Settings: buffer, pH 7.4

| Structure (SMILES) | logD |
| --- | --- |
| Cc1cc2c(cc1O)CCN(CC(C)C)[C@@H]2c1ccc(/C=C/C(=O)O)cc1 | 1.8 |
| COC[C@H](C)CN1[C@H](c2c(F)cc(/C=C/C(=O)O)cc2F)c2ccc(O)cc2C[C@H]1C | 1.6 |
| CC(C)CN1CCc2cc(O)ccc2[C@@]1(C)c1ccc(/C=C/C(=O)O)cc1 | 2.2 |
| C[C@H](CF)CN1[C@H](c2ccc(/C=C/C(=O)O)cc2)c2ccc(O)cc2CC1(C)C | 1.8 |

Continued, values first:

| logD | Structure (SMILES) |
| --- | --- |
| 3.7 | O=C(O)/C=C/c1ccc(C2c3ccc(O)cc3CCN2c2ccc(OC(F)(F)F)cc2)cc1 (configuration not stated) |
| 1.7 | CC(C)CN1[C@H](c2ccc(/C=C/C(=O)O)cc2)c2ccc(O)cc2C[C@H]1C |
